Measured values as given in patent US20150065421A1, “BASAL INSULIN THERAPY” (SANOFI, priority 2012, published 2015).

How the values were obtained:
Assay type in all cases: in vivo, human
[1] = test system: people at high risk for vascular disease with either IFG, IGT, or early type 2 diabetes; assay: ORIGIN trial: hypoglycemia, weight change and glargine adherence
Source text: Participants were asked to self-administer daily subcutaneous saline injections and to check their capillary glucose levels during a 10 day run-in period. Adherent participants were then provided with lifestyle advice and randomly allocated to either insulin glargine (Lantus™) or standard approaches to glycaemic control. Participants allocated to insulin glargine who were also taking a thiazolidinedione stopped that medication at the time of randomization; otherwise the insulin glargine was added to their glycemic regimen. These participants were instructed to inject insulin glargine in the evening, starting at 2, 4 or 6 units (depending on their initial FPG) and to increase the dose at least once per week targeting a self-measured FPG level ≦5.3 mmol/l (95 mg/dl) and ≧4 mmol/l (72 mg/dl). […] If participants developed uncontrolled hyperglycemia, investigators were permitted to add rapid-acting insulin. No other glucose-lowering medication could be added or increased. FPG levels were measured in the local laboratory at every visit and the results were regularly reviewed along with the dose of insulin to ensure that insulin was being effectively trirated. People not diagnosed with diabetes by the time of the penultimate study visit down-titrated insulin glargine by 10 units per day and stopped any metformin that was prescribed.
Outcomes and other data were collected at scheduled study visits at 0.5, 1, 2, and 4 months after randomization and every 4 months thereafter. Weight, waist and hip circumference were measured annually. HbA1c levels were assayed in local laboratories at every visit for the first year and then annually in people without diabetes and every 4 months for people with diabetes. A first morning urine collection was sent centrally and assayed for creatinine and albumin at baseline, 2 yrs and study end.
(§1) There were 2 co-primary composite CV outcomes. The first was CV death, non-fatal MI or non-fatal stroke, and the second was a composite of any of these events or a revascularization procedure or hospitalization for heart failure. Secondary outcomes included a composite microvascular outcome comprising a doubling of serum creatinine from baseline, progression of albuminuria category from normoalbuminuria or microalbuminuria to microalbuminuria or overt nephropathy, renal replacement therapy, renal death, retinal photocoagulation or vitrectomy for retinopathy. They also included new type 2 diabetes developing by the time of the 1st post-trial oral glucose tolerance test in participants without baseline diabetes, and all-cause mortality. Other outcomes included incident cancers, CV hospitalizations, and angina. Cardiovascular and cancer outcomes were reviewed by adjudicators masked to treatment allocation. Episodes of hypoglycaemia since the prior visit were recorded at each visit. Symptomatic hypoglycemia was classified as confirmed if a concomitant recorded capillary glucose level was <3 mmol/L (54 mg/dL). Severe hypoglycemia was defined as hypoglycemia that required assistance plus either prompt recovery with glucose or glucagon or a documented capillary glucose ≦2.0 (36 mg/dL). New diabetes was diagnosed if 2 consecutive FPG levels within a 4-month period were ≧7 mM (126 mg/dL) during the trial; a diagnosis of diabetes was made by a physician and a pharmacologic antidiabetic agent was being taken and there was evidence of either a FPG ≧7 mM (126 mg/dL) or any glucose value ≧11.1 mM (200 mg/dL); either 1 or more capillary glucose levels were ≧11.1 mM (200 mg/dl) and a lab-measured FPG was ≧7 mmol/l (126 mg/dl) or a lab measured random glucose level was ≧11.1 mM (200 mg/dl) during down-titration of glargine insulin; or any FPG was ≧7 mM (126 mg/dl) or 2 hour plasma glucose was ≧11.1 mM (200 mg/dl) during the first oral glucose tolerance test.

[2] = test system: people at high risk for vascular disease with either IFG, IGT, or early type 2 diabetes; assay: ORIGIN trial: microvascular outcomes
Source text: The composite microvascular outcome will be met by the development of any of the following: • Doubling of serum creatinine from study baseline (screening value) • Albuminuria progression, defined as a change from normoalbuminuria to either microalbuminuria or clinical proteinuria, or from microalbuminuria to clinical proteinuria using the definitions in the attached table.
• Requirement for renal replacement therapy (eg, dialysis, renal transplant), or death due to renal failure • Use of retinal photocoagulation or vitrectomy for diabetic retinopathy, including macular edema
as §1
The microvascular outcome was a composite of: laser surgery or vitrectomy or blindness for diabetic retinopathy; development of renal death or the need for renal replacement treatment (dialysis or transplantation); doubling of serum creatinine; or progression from lesser to greater severity of microalbuminuria. The last 2 components are laboratory-based—the others are “clinical” microvascular outcomes.

[3] = test system: people at high risk for vascular disease with either IFG, IGT, or early type 2 diabetes; assay: ORIGIN trial: cognition outcomes (Mini-Mental Status Exam)
Source text: Defined by serial cognitive testing (e.g., mini-mental status examination [MMSE]).
Overall, there was a strong trend (p=0.075) for glargine treatment to be associated with fewer impaired patients. The data, as summarized in Table 7, reflect the Mini-Mental Status Exam (MMSE) data for the number of participants scoring 24 or less at various timepoints (mild impairment). These patients were examined because they represent those at greater risk of further deterioration during the study, and still with enough patients to confer adequate power to make statistical comparisons. There was a significant reduction of cases of mild impairment from baseline at about 4 years.

[4] = patients with a history of atrial fibrillation at baseline

(Gly A21) Arg (B31) Arg (B32) human insulin [insulin glargine]
more severe hypoglycemia episodes than standard care ([1]; absolute risk difference): approximately 0.7 per 100 person-years
more suspected or confirmed hypoglycemia episodes than standard care ([1]; absolute risk difference): ~11 per 100 person-years
annual incidence of severe hypoglycemia ([1]; basal insulin in ORIGIN): 1.00%
Reason Stopped: N Hyperglycemia (%), Ever Off ([1]; first time off): 4 (0.15) N (%)
Reason Stopped: N Hypoglycemia (%), Ever Off ([1]; first time off): 218 (8.2) N (%)
Reason Stopped: N Wt Gain (%), Ever Off ([1]; first time off): 4 (0.15) N (%)
risk of hypoglycemia relative to standard care participants ([1]; higher): approximately 3 fold
Any Symptomatic Hypoglycemia, Mean Number of Episodes/yr ([1]; in vivo): 2.6 (4.1) Episodes/yr
Any Symptomatic Hypoglycemia, No Episodes During Follow-up (%) ([1]; in vivo): 2691 (43.0) N (%)
Confirmed Symptomatic Hypoglycemia, Mean Number of Episodes/yr ([1]; in vivo): 1.3 (2.3) Episodes/yr
No Confirmed Episodes During follow-up (%) ([1]; in vivo): 3652 (58.3) N (%)
incidence of the first episode of any (confirmed or unconfirmed) hypoglycemia ([1]; insulin glargine group): 16.73 per 100 person-years
mean weight gain ([1]; insulin glargine group): 1.6 kg
participants without any episode of symptomatic hypoglycemia during the entire trial (number) ([1]; insulin glargine group): 2691 participants
incidence of the first episode of nonsevere symptomatic hypoglycemia confirmed by a self-measured glucose level 3 mmol/l (54 mg/dl) ([1]; insulin glargine group, P<0.001): 9.81 per 100 person-years
incidence of the first episode of severe hypoglycemia ([1]; insulin glargine group, P<0.001 vs standard care): 1.00 per 100 person-years
participants without any episode of symptomatic hypoglycemia during the entire trial (percent) ([1]; insulin glargine group, median 6.2 years): 43%
Reason Stopped: N Hyperglycemia (%), Permanently Off ([1]; last time off and stayed off): 2 (0.2) N (%)
Reason Stopped: N Hypoglycemia (%), Permanently Off ([1]; last time off and stayed off): 42 (4.0) N (%)
Reason Stopped: N Wt Gain (%), Permanently Off ([1]; last time off and stayed off): 4 (0.4) N (%)
Severe Hypoglycemia, Total Episodes During Follow-up ([1]; median follow-up 6.2 years): 457
Any Symptomatic Hypoglycemia, ≧1 Episode (N/100py) ([1]; nonsevere): 3573 (16.73) N/100py
Confirmed Symptomatic Hypoglycemia, ≧1 Confirmed Episode (N/100py) ([1]; nonsevere, self-measured glucose ≦3 mmol/l (54 mg/dl)): 2612 (9.81) N/100py
Severe Hypoglycemia, ≧1 Episode (N/100py) ([1]; participants (rate per 100 person-years), P<0.001 vs standard care): 359 (1.00) N/100py
1 or more nonsevere hypoglycemic episodes confirmed by glucose <3 mmol/l (<54 mg/dl) ([1]; people with diabetes at enrollment): 10.5 per 100 person-years
1 or more nonsevere hypoglycemic episodes confirmed by glucose <3 mmol/l (<54 mg/dl) ([1]; people without diabetes at enrollment): 5.7 per 100 person-years
Albumin Prog, N (%) ([2]; glargine group): 1154
Albumin Prog, Rate ([2]; glargine group): 3.3
Clin Microvasc, N (%) ([2]; glargine group): 190
Clin Microvasc, Rate ([2]; glargine group): 0.5
Double Cr, N (%) ([2]; glargine group): 94
Double Cr, Rate ([2]; glargine group): 0.25
Laser/Vitrect, N (%) ([2]; glargine group): 79
Laser/Vitrect, Rate ([2]; glargine group): 0.22
Microvascular, N (%) ([2]; glargine group): 1280
Microvascular, Rate ([2]; glargine group): 3.7
Renal Failure, N (%) ([2]; glargine group): 36
Renal Failure, Rate ([2]; glargine group): 0.1
Laser/Vitrect, HR (95% CI) ([2]; glargine vs standard, P 0.016): 0.59 (0.38, 0.91)
Clin Microvasc, HR (95% CI) ([2]; glargine vs standard, P 0.038): 0.74 (0.56, 0.98)
Microvascular, HR (95% CI) ([2]; glargine vs standard, P 0.066): 0.90 (0.81, 1.01)
Double Cr, HR (95% CI) ([2]; glargine vs standard, P 0.09): 0.70 (0.46, 1.06)
Albumin Prog, HR (95% CI) ([2]; glargine vs standard, P 0.17): 0.92 (0.82, 1.04)
Renal Failure, HR (95% CI) ([2]; glargine vs standard, P 0.46): 1.27 (0.67, 2.39)
microvascular outcomes, difference to standard care ([2]; insulin glargine vs standard care): no statistically significant difference
RR for Clinical Microvascular outcomes (non-laboratory-based) [2, 4]: 0.42 (0.19-0.91)
RR for microvascular outcome [2, 4]: 0.74 (0.55-0.98)
relative risk (RR) for microvascular outcome ([2]; patients with baseline A1c<6.4%, not significant): 1.08
relative risk (RR) for microvascular outcome ([2]; patients with baseline A1c≧6.4%, statistically significant): 0.88 (0.79-0.98)
participants scoring 24 or less in MMSE (mild impairment), N (%) ([3]; 2 years, P 0.823 vs standard, baseline 483 (7.7)): 433 (7.6) N (%)
participants scoring 24 or less in MMSE (mild impairment), N (%) ([3]; Any measure, P 0.075 vs standard): 605 (10.4) N (%)
participants scoring 24 or less in MMSE (mild impairment), N (%) ([3]; End of study, P 0.358 vs standard): 464 (9.6) N (%)
participants scoring 24 or less in MMSE (mild impairment), N (%) ([3]; ~4 years, P 0.022 vs standard): 449 (9.0) N (%)
